Reference: patent US20260356819A1, “OXOISOINDOLINYL-SUBSTITUTED […] DERIVATIVE AND USE THEREOF” (GLUETACS THERAPEUTICS (SHANGHAI) CO., LTD., priority 2023, published 2026)

How the values were obtained:
Assay type in all cases: cell-based
Conditions in all cases: compounds at 50 nM and 500 nM
WEE1 = molecular target: T1, WEE1 (Homo sapiens, UniProt P30291+Q96SW2); experiment: Western blot degradation of WEE1 in hPBMCs (24 h)
T1 construct: The supernatant was aspirated as the extracted total cell protein; endogenous in cells; host or cells: human peripheral blood mononuclear cells (hPBMCs)
T1 sequence (P30291 whole entry): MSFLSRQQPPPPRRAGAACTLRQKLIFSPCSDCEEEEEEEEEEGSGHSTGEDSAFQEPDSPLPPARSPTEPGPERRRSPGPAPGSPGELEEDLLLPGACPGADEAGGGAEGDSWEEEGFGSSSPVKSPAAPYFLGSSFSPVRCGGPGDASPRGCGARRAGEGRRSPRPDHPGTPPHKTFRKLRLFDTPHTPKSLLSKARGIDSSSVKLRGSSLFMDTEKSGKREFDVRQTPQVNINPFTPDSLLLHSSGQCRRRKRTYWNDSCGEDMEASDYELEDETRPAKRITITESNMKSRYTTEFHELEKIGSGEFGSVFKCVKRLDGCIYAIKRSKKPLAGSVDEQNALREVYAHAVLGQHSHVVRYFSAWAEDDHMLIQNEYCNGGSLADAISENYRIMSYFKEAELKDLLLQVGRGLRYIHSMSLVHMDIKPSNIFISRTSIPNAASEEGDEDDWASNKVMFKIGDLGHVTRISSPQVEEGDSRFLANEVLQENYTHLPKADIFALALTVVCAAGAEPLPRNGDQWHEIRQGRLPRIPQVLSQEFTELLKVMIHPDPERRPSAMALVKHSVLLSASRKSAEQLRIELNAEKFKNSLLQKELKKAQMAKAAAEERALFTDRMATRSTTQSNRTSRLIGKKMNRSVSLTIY
T1 sequence (Q96SW2 whole entry): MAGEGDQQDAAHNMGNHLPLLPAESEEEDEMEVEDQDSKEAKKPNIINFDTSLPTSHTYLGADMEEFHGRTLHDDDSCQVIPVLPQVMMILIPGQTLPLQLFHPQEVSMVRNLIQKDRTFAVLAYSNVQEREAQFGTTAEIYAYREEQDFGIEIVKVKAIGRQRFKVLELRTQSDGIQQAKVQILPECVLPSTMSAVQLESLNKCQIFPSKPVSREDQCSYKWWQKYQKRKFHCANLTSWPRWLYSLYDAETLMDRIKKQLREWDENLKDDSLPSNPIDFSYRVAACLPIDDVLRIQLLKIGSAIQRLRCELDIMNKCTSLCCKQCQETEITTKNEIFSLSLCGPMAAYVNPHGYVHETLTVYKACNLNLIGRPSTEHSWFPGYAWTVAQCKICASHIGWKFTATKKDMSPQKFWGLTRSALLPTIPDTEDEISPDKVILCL
T1 sequence (Q16531 whole entry partner): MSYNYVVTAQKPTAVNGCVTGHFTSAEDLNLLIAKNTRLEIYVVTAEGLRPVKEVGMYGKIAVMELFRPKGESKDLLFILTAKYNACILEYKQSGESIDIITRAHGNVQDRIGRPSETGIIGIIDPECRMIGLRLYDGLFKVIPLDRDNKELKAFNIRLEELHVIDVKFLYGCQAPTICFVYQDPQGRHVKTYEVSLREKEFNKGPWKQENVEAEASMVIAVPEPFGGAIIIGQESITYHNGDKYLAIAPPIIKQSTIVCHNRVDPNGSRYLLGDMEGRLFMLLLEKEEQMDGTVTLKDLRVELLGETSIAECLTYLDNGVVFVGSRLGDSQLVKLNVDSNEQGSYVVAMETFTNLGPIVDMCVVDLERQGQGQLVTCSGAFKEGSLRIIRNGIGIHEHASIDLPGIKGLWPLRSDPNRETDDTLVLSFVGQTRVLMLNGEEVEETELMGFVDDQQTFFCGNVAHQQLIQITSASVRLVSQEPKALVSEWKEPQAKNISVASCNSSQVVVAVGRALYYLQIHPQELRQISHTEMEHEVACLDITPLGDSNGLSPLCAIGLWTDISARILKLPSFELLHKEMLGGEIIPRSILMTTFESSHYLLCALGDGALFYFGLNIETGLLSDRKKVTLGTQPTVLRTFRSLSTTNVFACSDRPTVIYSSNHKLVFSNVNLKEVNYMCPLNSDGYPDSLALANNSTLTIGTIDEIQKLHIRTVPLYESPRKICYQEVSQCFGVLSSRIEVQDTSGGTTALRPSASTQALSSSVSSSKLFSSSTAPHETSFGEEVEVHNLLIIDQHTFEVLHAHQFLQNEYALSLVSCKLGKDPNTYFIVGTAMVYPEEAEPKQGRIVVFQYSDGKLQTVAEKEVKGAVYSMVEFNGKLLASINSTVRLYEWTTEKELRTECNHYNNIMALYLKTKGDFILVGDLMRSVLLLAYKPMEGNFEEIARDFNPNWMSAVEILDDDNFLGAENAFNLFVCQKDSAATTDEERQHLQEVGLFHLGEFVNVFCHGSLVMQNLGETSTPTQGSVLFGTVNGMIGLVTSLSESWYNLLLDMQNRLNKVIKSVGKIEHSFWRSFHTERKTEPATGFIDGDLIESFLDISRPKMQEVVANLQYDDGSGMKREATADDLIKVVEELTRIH
In short: (§1)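 In this assay, each compound was incubated with human PBMCs for 24 h at 50 nM and 500 nM. Target levels were measured by Western blot densitometry normalised to an internal control.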

IKZF1 = molecular target: T2, IKZF1 (Homo sapiens, UniProt Q13422+Q96SW2); experiment: Western blot degradation of IKZF1 in hPBMCs (24 h)
T2 construct: The supernatant was aspirated as the extracted total cell protein; endogenous in cells; host or cells: human peripheral blood mononuclear cells (hPBMCs)
T2 sequence (Q13422 whole entry): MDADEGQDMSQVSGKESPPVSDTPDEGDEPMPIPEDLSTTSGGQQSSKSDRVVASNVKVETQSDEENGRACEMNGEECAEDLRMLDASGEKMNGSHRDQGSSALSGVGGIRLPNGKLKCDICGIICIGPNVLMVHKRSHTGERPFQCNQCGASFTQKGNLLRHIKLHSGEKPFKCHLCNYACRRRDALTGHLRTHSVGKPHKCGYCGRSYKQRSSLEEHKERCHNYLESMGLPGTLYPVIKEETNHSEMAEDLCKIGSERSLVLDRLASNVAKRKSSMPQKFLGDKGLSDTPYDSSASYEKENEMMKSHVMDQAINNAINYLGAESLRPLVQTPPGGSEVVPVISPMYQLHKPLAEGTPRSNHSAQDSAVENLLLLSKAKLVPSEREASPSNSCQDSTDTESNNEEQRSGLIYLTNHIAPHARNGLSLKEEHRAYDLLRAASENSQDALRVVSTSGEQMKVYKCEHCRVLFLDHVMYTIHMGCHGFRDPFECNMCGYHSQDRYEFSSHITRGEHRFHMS
T2 sequence (Q96SW2 whole entry): as the sequence (Q96SW2 whole entry) above
T2 sequence (Q16531 whole entry partner): as the sequence (Q16531 whole entry partner) above
In short: as §1

IKZF2 = molecular target: T3, IKZF2 (Homo sapiens, UniProt Q96SW2+Q9UKS7); experiment: Western blot degradation of IKZF2 in hPBMCs (24 h)
T3 construct: The supernatant was aspirated as the extracted total cell protein; endogenous in cells; host or cells: human peripheral blood mononuclear cells (hPBMCs)
In short: as §1

IKZF3 = molecular target: T4, IKZF3 (Homo sapiens, UniProt Q96SW2+Q9UKT9); experiment: Western blot degradation of IKZF3 in hPBMCs (24 h)
T4 construct: The supernatant was aspirated as the extracted total cell protein; endogenous in cells; host or cells: human peripheral blood mononuclear cells (hPBMCs)
T4 sequence (Q9UKT9 whole entry): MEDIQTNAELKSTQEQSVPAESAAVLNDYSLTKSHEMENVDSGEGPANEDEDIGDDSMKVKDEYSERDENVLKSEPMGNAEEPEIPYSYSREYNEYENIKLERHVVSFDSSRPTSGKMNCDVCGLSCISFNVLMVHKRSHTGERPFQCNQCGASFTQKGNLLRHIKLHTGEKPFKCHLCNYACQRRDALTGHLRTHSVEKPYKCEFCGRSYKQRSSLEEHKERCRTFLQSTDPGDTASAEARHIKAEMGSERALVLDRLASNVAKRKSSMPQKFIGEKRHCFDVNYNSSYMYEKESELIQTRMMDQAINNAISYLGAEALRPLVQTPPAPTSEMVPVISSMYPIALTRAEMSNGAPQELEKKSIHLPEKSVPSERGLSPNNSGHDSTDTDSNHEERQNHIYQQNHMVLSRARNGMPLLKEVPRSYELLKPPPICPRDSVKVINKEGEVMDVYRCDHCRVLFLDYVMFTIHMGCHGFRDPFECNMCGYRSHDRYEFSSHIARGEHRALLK
T4 sequence (Q96SW2 whole entry): as the sequence (Q96SW2 whole entry) above
T4 sequence (Q16531 whole entry partner): as the sequence (Q16531 whole entry partner) above
In short: as §1

CK1α = molecular target: T5, CK1α (Homo sapiens, UniProt P48729+Q96SW2); experiment: Western blot degradation of CK1α in hPBMCs (24 h)
T5 construct: The supernatant was aspirated as the extracted total cell protein; endogenous in cells; host or cells: human peripheral blood mononuclear cells (hPBMCs)
T5 sequence (P48729 whole entry): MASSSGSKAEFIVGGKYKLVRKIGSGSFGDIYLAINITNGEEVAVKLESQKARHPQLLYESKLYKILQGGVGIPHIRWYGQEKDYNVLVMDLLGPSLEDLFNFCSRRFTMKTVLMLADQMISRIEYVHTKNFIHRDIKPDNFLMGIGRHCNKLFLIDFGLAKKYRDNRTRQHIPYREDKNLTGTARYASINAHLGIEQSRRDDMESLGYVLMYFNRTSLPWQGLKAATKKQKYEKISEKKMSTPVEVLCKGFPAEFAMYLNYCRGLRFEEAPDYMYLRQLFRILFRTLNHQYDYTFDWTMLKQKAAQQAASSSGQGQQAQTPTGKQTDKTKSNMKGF
T5 sequence (Q96SW2 whole entry): as the sequence (Q96SW2 whole entry) above
T5 sequence (Q16531 whole entry partner): as the sequence (Q16531 whole entry partner) above
In short: as §1

GSPT1 = molecular target: T6, GSPT1 (Homo sapiens, UniProt P15170+Q96SW2); experiment: Western blot degradation of GSPT1 in hPBMCs (24 h)
T6 construct: The supernatant was aspirated as the extracted total cell protein; endogenous in cells; host or cells: human peripheral blood mononuclear cells (hPBMCs)
T6 sequence (P15170 whole entry): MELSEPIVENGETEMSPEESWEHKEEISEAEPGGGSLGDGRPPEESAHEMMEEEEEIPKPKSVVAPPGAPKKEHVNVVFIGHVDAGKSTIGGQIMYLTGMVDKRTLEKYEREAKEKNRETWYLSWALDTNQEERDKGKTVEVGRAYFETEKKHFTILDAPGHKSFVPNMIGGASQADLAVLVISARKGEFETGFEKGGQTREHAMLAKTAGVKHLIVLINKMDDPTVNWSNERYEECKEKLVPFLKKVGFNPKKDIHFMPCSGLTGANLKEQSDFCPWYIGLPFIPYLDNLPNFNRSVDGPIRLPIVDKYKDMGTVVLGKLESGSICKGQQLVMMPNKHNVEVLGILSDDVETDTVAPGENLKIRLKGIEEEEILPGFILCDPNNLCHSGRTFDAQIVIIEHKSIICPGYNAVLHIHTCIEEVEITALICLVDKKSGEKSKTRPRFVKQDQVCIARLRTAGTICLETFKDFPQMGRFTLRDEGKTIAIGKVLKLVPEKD
T6 sequence (Q96SW2 whole entry): as the sequence (Q96SW2 whole entry) above
T6 sequence (Q16531 whole entry partner): as the sequence (Q16531 whole entry partner) above
In short: as §1

Row | Structure (SMILES) | WEE1 substrate protein remaining % (WEE1) | IKZF1 substrate protein remaining % (IKZF1) | IKZF2 substrate protein remaining % (IKZF2) | IKZF3 substrate protein remaining % (IKZF3) | CK1α substrate protein remaining % (CK1α) | GSPT1 substrate protein remaining % (GSPT1)
1 | O=C1CCN(N2Cc3cc(CN4CCN(c5c(Cl)ccnc5Cl)CC4)ccc3C2=O)C(=O)N1 [GT-06974, 1-(5-((4-(2,4-dichloropyridin-3-yl)piperazin-1-yl)methyl)-1-oxoisoindolin-2-yl)dihydropyrimidine-2,4(1H,3H)-dione] | A (0% ≤ substrate protein remaining % ≤80%) | A (0% ≤ substrate protein remaining % ≤80%) | B (80%< substrate protein remaining % ≤100%) | A (0% ≤ substrate protein remaining % ≤80%) | B (80%< substrate protein remaining % ≤100%) | B (80%< substrate protein remaining % ≤100%)
2 | O=C1CCN(N2C(=O)c3ccc(CN4CCN(c5ccc(Cl)nc5)CC4)cc3C2=O)C(=O)N1 [GT-07027, 5-((4-(6-chloropyridin-3-yl)piperazin-1-yl)methyl)-2-(2,4-dioxotetrahydropyrimidin-1(2H)-yl)isoindoline-1,3-dione] | A (0% ≤ substrate protein remaining % ≤80%) | B (80%< substrate protein remaining % ≤100%) | B (80%< substrate protein remaining % ≤100%) | B (80%< substrate protein remaining % ≤100%) | B (80%< substrate protein remaining % ≤100%) | A (0% ≤ substrate protein remaining % ≤80%)
3 | O=C1CCN(N2Cc3cc(CN4CCN(c5ncnc(Cl)c5Cl)CC4)ccc3C2=O)C(=O)N1 [GT-07028, 1-(5-((4-(5,6-dichloropyrimidin-4-yl)piperazin-1-yl)methyl)-1-oxoisoindolin-2-yl)dihydropyrimidine-2,4(1H,3H)-dione] | A (0% ≤ substrate protein remaining % ≤80%) | B (80%< substrate protein remaining % ≤100%) | B (80%< substrate protein remaining % ≤100%) | B (80%< substrate protein remaining % ≤100%) | B (80%< substrate protein remaining % ≤100%) | A (0% ≤ substrate protein remaining % ≤80%)
4 | O=C1CCN(N2Cc3cc(CN4CCN(c5cnnc(Cl)c5Cl)CC4)ccc3C2=O)C(=O)N1 [GT-07029, 1-(5-((4-(5,6-dichloropyridazin-4-yl)piperazin-1-yl)methyl)-1-oxoisoindolin-2-yl)dihydropyrimidine-2,4(1H,3H)-dione] | A (0% ≤ substrate protein remaining % ≤80%) | B (80%< substrate protein remaining % ≤100%) | A (0% ≤ substrate protein remaining % ≤80%) | B (80%< substrate protein remaining % ≤100%) | B (80%< substrate protein remaining % ≤100%) | A (0% ≤ substrate protein remaining % ≤80%)
5 | O=C1CCN(N2Cc3cc(CN4CCN(c5cc(Cl)nnc5Cl)CC4)ccc3C2=O)C(=O)N1 [GT-07030, 1-(5-((4-(3,6-dichloropyridazin-4-yl)piperazin-1-yl)methyl)-1-oxoisoindolin-2-yl)dihydropyrimidine-2,4(1H,3H)-dione] | B (80%< substrate protein remaining % ≤100%) | B (80%< substrate protein remaining % ≤100%) | A (0% ≤ substrate protein remaining % ≤80%) | B (80%< substrate protein remaining % ≤100%) | B (80%< substrate protein remaining % ≤100%) | B (80%< substrate protein remaining % ≤100%)
6 | O=C1CCN(N2Cc3cc(CN4CCN(c5ncncn5)CC4)ccc3C2=O)C(=O)N1 [GT-07031, 1-(5-((4-(1,3,5-triazin-2-yl)piperazin-1-yl)methyl)-1-oxoisoindolin-2-yl)dihydropyrimidine-2,4(1H,3H)-dione] | B (80%< substrate protein remaining % ≤100%) | A (0% ≤ substrate protein remaining % ≤80%) | B (80%< substrate protein remaining % ≤100%) | A (0% ≤ substrate protein remaining % ≤80%) | A (0% ≤ substrate protein remaining % ≤80%) | A (0% ≤ substrate protein remaining % ≤80%)
7 | O=C1CCN(N2Cc3cc(CN4CCN(c5c(Cl)cncc5Cl)CC4)ccc3C2=O)C(=O)N1 [GT-07032, 1-(5-((4-(3,5-dichloropyridin-4-yl)piperazin-1-yl)methyl)-1-oxoisoindolin-2-yl)dihydropyrimidine-2,4(1H,3H)-dione] | B (80%< substrate protein remaining % ≤100%) | B (80%< substrate protein remaining % ≤100%) | B (80%< substrate protein remaining % ≤100%) | B (80%< substrate protein remaining % ≤100%) | B (80%< substrate protein remaining % ≤100%) | A (0% ≤ substrate protein remaining % ≤80%)
8 | Cc1cc(N2CCN(Cc3ccc4c(c3)CN(N3CCC(=O)NC3=O)C4=O)CC2)cc(C)n1 [GT-07033, 1-(5-((4-(2,6-dimethylpyridin-4-yl)piperazin-1-yl)methyl)-1-oxoisoindolin-2-yl)dihydropyrimidine-2,4(1H,3H)-dione] | B (80%< substrate protein remaining % ≤100%) | B (80%< substrate protein remaining % ≤100%) | B (80%< substrate protein remaining % ≤100%) | B (80%< substrate protein remaining % ≤100%) | B (80%< substrate protein remaining % ≤100%) | A (0% ≤ substrate protein remaining % ≤80%)
9 | O=C1CCN(N2C(=O)c3ccc(CN4CCN(c5ncnc(Cl)c5Cl)CC4)cc3C2=O)C(=O)N1 [GT-07034, 5-((4-(5,6-dichloropyrimidin-4-yl)piperazin-1-yl)methyl)-2-(2,4-dioxotetrahydropyrimidin-1(2H)-yl)isoindoline-1,3-dione] | A (0% ≤ substrate protein remaining % ≤80%) | A (0% ≤ substrate protein remaining % ≤80%) | A (0% ≤ substrate protein remaining % ≤80%) | A (0% ≤ substrate protein remaining % ≤80%) | A (0% ≤ substrate protein remaining % ≤80%) | A (0% ≤ substrate protein remaining % ≤80%)
10 | O=C1CCN(N2C(=O)c3ccc(CN4CCN(c5cnnc(Cl)c5Cl)CC4)cc3C2=O)C(=O)N1 [GT-07035, 5-((4-(5,6-dichloropyridazin-4-yl)piperazin-1-yl)methyl)-2-(2,4-dioxotetrahydropyrimidin-1(2H)-yl)isoindoline-1,3-dione] | B (80%< substrate protein remaining % ≤100%) | B (80%< substrate protein remaining % ≤100%) | B (80%< substrate protein remaining % ≤100%) | A (0% ≤ substrate protein remaining % ≤80%) | A (0% ≤ substrate protein remaining % ≤80%) | A (0% ≤ substrate protein remaining % ≤80%)
11 | O=C1CCN(N2C(=O)c3ccc(CN4CCN(c5cc(Cl)nnc5Cl)CC4)cc3C2=O)C(=O)N1 [GT-07036, 5-((4-(3,6-dichloropyridazin-4-yl)piperazin-1-yl)methyl)-2-(2,4-dioxotetrahydropyrimidin-1(2H)-yl)isoindoline-1,3-dione] | B (80%< substrate protein remaining % ≤100%) | B (80%< substrate protein remaining % ≤100%) | B (80%< substrate protein remaining % ≤100%) | B (80%< substrate protein remaining % ≤100%) | B (80%< substrate protein remaining % ≤100%) | A (0% ≤ substrate protein remaining % ≤80%)
12 | O=C1CCN(N2C(=O)c3ccc(CN4CCN(c5ncncn5)CC4)cc3C2=O)C(=O)N1 [GT-07037, 5-((4-(1,3,5-triazin-2-yl)piperazin-1-yl)methyl)-2-(2,4-dioxotetrahydropyrimidin-1(2H)-yl)isoindoline-1,3-dione] | B (80%< substrate protein remaining % ≤100%) | B (80%< substrate protein remaining % ≤100%) | B (80%< substrate protein remaining % ≤100%) | B (80%< substrate protein remaining % ≤100%) | B (80%< substrate protein remaining % ≤100%) | A (0% ≤ substrate protein remaining % ≤80%)
13 | O=C1CCN(N2C(=O)c3ccc(CN4CCN(c5c(Cl)cncc5Cl)CC4)cc3C2=O)C(=O)N1 [GT-07038, 5-((4-(3,5-dichloropyridin-4-yl)piperazin-1-yl)methyl)-2-(2,4-dioxotetrahydropyrimidin-1(2H)-yl)isoindoline-1,3-dione] | A (0% ≤ substrate protein remaining % ≤80%) | A (0% ≤ substrate protein remaining % ≤80%) | A (0% ≤ substrate protein remaining % ≤80%) | A (0% ≤ substrate protein remaining % ≤80%) | A (0% ≤ substrate protein remaining % ≤80%) | A (0% ≤ substrate protein remaining % ≤80%)
